Reference: PubChem BioAssay AID1918999 (Molecular Pharmacology Branch, DTP, NCI, 2023)
pIC50: −log10 of the molar value.

Test system: 556581-035-R-J1-PDC complex spheroid growth
Experiment: Anticancer human tumor 556581-035-R-J1-PDC patient-derived ovarian carcinoma cell line growth inhibition [AhR]
Details: for pIC50: curve of first compound; for viability, T/C: stronger effect = lower value
Method in brief: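 Complex tumor spheroids co-cultured with HUVEC and human MSC stroma; AhR antagonists tested in combination with standard-of-care and investigational agents. Top concentration at or near clinical Cmax (else 10 microM), half-log dilutions; growth expressed as percent test/control.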

[1] = second compound 0.1 µM, first compound 0.0316 µM
[2] = second compound 0.1 µM, first compound 0.1 µM
[3] = second compound 0.1 µM, first compound 0.316 µM
[4] = second compound 0.1 µM, first compound 1 µM
[5] = second compound 0.1 µM, first compound 3.16 µM
[6] = second compound 0.1 µM, first compound 10 µM
[7] = second compound 0.316 µM, first compound 0.0316 µM
[8] = second compound 0.316 µM, first compound 0.1 µM
[9] = second compound 0.316 µM, first compound 0.316 µM
[10] = second compound 0.316 µM, first compound 1 µM
[11] = second compound 0.316 µM, first compound 3.16 µM
[12] = second compound 0.316 µM, first compound 10 µM
[13] = second compound 1 µM, first compound 0.0316 µM
[14] = second compound 1 µM, first compound 0.1 µM
[15] = second compound 1 µM, first compound 0.316 µM
[16] = second compound 1 µM, first compound 1 µM
[17] = second compound 1 µM, first compound 3.16 µM
[18] = second compound 1 µM, first compound 10 µM
[19] = second compound 3.16 µM, first compound 0.0316 µM
[20] = second compound 3.16 µM, first compound 0.1 µM
[21] = second compound 3.16 µM, first compound 0.316 µM
[22] = second compound 3.16 µM, first compound 1 µM
[23] = second compound 3.16 µM, first compound 3.16 µM
[24] = second compound 3.16 µM, first compound 10 µM
[25] = second compound 10 µM, first compound 0.0316 µM
[26] = second compound 10 µM, first compound 0.1 µM
[27] = second compound 10 µM, first compound 0.316 µM
[28] = second compound 10 µM, first compound 1 µM
[29] = second compound 10 µM, first compound 3.16 µM
[30] = second compound 10 µM, first compound 10 µM
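Wherever viability, T/C is given: compound exposure lasted 7 days; 100% = DMSO vehicle control growth.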

SMILES | pIC50 (second compound 0.1 µM) | pIC50 (second compound 0.316 µM) | pIC50 (second compound 1 µM) | pIC50 (second compound 3.16 µM) | pIC50 (second compound 10 µM) | viability, T/C [1] [%] | viability, T/C [2] [%] | viability, T/C [3] [%] | viability, T/C [4] [%] | viability, T/C [5] [%] | viability, T/C [6] [%] | viability, T/C [7] [%] | viability, T/C [8] [%] | viability, T/C [9] [%] | viability, T/C [10] [%] | viability, T/C [11] [%] | viability, T/C [12] [%] | viability, T/C [13] [%] | viability, T/C [14] [%] | viability, T/C [15] [%] | other results
Nc1ccn(C2OC(CO)C(O)C2(F)F)c(=O)n1 (stereo not given) + Cc1cncc(-c2nc(NCCc3c[nH]c4ccccc34)c3ncn(C(C)C)c3n2)c1 | > 7.50 | > 7.50 | > 7.50 | > 7.50 | 5.22 | 32.8 | 34.5 | 35.8 | 32.9 | 34.1 | 28.2 | 34.5 | 34.9 | 37 | 37.6 | 29.2 | 32.7 | 31.8 | 36.1 | 36 | viability, T/C [16]: 36.5%; viability, T/C [17]: 32.7%; viability, T/C [18]: 28.6%; viability, T/C [19]: 43.3%; viability, T/C [20]: 45.4%; viability, T/C [21]: 44.3%; viability, T/C [22]: 45.9%; viability, T/C [23]: 38.2%; viability, T/C [24]: 33%; viability, T/C [25]: 55.7%; viability, T/C [26]: 64.2%; viability, T/C [27]: 57%; viability, T/C [28]: 62.7%; viability, T/C [29]: 48.1%; viability, T/C [30]: 48.6%
O=C(c1cc(Cc2n[nH]c(=O)c3ccccc23)ccc1F)N1CCN(C(=O)C2CC2)CC1 + Cc1cncc(-c2nc(NCCc3c[nH]c4ccccc34)c3ncn(C(C)C)c3n2)c1 | < 5.00 | < 5.00 | < 5.00 | < 5.00 | < 5.00 | 98.4 | 107 | 101 | 89.6 | 94.6 | 82 | 112 | 105 | 104 | 91.2 | 91.9 | 78.9 | 108 | 102 | 99.3 | viability, T/C [16]: 95.9%; viability, T/C [17]: 98.8%; viability, T/C [18]: 90.2%; viability, T/C [19]: 104%; viability, T/C [20]: 108%; viability, T/C [21]: 95.3%; viability, T/C [22]: 89.2%; viability, T/C [23]: 94.3%; viability, T/C [24]: 81.3%; viability, T/C [25]: 90%; viability, T/C [26]: 95.4%; viability, T/C [27]: 95.2%; viability, T/C [28]: 86.2%; viability, T/C [29]: 92.7%; viability, T/C [30]: 83.2%
